# Experimental data published in patent publication US20150118267A1, “METHOD OF USING THEAFLAVIN” (priority 2013, published 2015).
# Columns and labels:
# Assay type in all cases: in vivo, mice
# [1] = system: Sheep red blood cell (SRBC); assay: Mouse plasma hemolysin assay; settings: for Antibody integrand: plasma on day 5 after SRBC injection, n=10
# Procedure: (§1) For each study, forty mice were divided into 4 groups with 10 mice per group (n=10). These four groups were control, theaflavin (low), theaflavin (mid), and theaflavin (high). The latter three were theaflavin-treated groups in which theaflavin (capsule, Xiayie™, prepared according to the method described in U.S. Pat. No. 8,282,970) was fed to mice at a dose of 83 mg, 250 mg, and 500 mg per kg body weight per day for 30 days for the low, mid, and high group, respectively. Water was fed for the control group. For the organ weight study, animals were sacrificed after the 30-day study, followed by collecting spleens and thymus for weight measurement. For the other studies, animals were harvested for further analyses as described below. Statistical differences between groups were calculated using SPSS 11.0 with student t test plus Dunnett method.
# Each mouse was given a single injection of 0.2 ml of 2% SRBC from the above-described preparation. On day 5 after the SRBC injection, the plasma was collected by centrifuging the mouse eye blood at 2000 r/min for 10 min, then was stored into a sterile tube. With a micro hemagglutinin-assay plate, the plasma was diluted to a series of concentrations, then […] of 0.5% SRBC suspension was added. The contents were is mixed by vortexing and incubated for 3 h in a 37° C., 5% CO2 incubator, after which the hemagglutination was observed under microscope. The data were presented as antibody integrand.
# [2] = Weights of immune-related organs (spleen, thymus) after 30-day feeding; settings: for Spleen Weight change / Thymus Weight change: mice, n=10, 30 days
# Procedure: (§2) Female mice (Kuengming, China) weighing 18-22 g were used. The animals were housed in individual stainless steel cages in an air-conditioned room under a 12:12 hour light:dark cycle. A commercial pellet diet and water were provided throughout the experiment. All procedures were conducted in accordance with the P.R. China legislation under No. 8910M047 on the use and care of laboratory animals.
# as §1, with “No. 8,282,970) was fed to mice at a dose of 83 mg, 250 mg, and 500 mg per kg body weight per day for 30 days for the low, mid, and high group, respectively.” left out
# [3] = system: Delayed-type hypersensitivity (DTH) induced by sheep red blood cell (SRBC); assay: Mouse footpad swelling assay (DTH); settings: for Footpad swelling: 24 hours after second SRBC injection, n=10
# Procedure: For each study, forty mice were divided into 4 groups with 10 mice per group (n=10). These four groups were control, theaflavin (low), theaflavin (mid), and theaflavin (high). The latter three were theaflavin-treated groups in which theaflavin (capsule, Xiayie™, prepared according to the method described in U.S. Pat. […] […] […] […] Statistical differences between groups were calculated using SPSS 11.0 with student t test plus Dunnett method.
# Delayed-type hypersensitivity (DTH) is an immune reaction induced by antigen. In the mice footpads at which DTH was elicited, transient swellings which usually peaked at 24-48 hours after the antigen challenge was observed. This assay of measuring footpad swelling of mice caused by a DTH reaction was used to test effects of theaflavin is on immune responses.
# The Sheep red blood cell (SRBC) was taken from sheep and washed triple with physiological saline, centrifugated at 1500 g for 10 min, and adjusted to a final concentration of 2%. Each mouse was given a single injection of 0.2 ml of prepared 2% SRBC. On day 4 after the SRBC injection, each mouse was given an […] injection (the second injection) of 0.02 ml of prepared 20% SRBC. Mouse footpad thicknesses were measured before and 24 hours after the second injection. Mouse footpad swelling values were calculated from the difference between these two measurements.
# [4] = Mouse body weight after 30-day theaflavin feeding; settings: for BW change: mice, n=10, 30 days
# Procedure: as §2
# as §1, with “No. 8,282,970) was fed to mice at a dose of 83 mg, 250 mg, and 500 mg per kg body weight per day for 30 days for the low, mid, and high group, respectively.” left out
# [5] = theaflavin treatment for 30 days, compared to control
structure (smiles),measurement,setting,value
"O=c1c(O)cc([C@H]2Oc3cc(O)cc(O)c3C[C@H]2O)cc2c([C@H]3Oc4cc(O)cc(O)c4C[C@H]3O)cc(O)c(O)c12 [Theaflavin, theaflavin]",Antibody integrand,[1]; 167 mg/kg.BW (Low),143.80 ± 35.23
same,Antibody integrand,[1]; 333 mg/kg.BW (Mid),123.20 ± 20.37
same,Antibody integrand,[1]; 500 mg/kg.BW (High),146.40 ± 26.46
same,mouse plasma hemolysin assay result compared to control,[1]; theaflavin low and high groups,statistically significant results
same,Spleen Weight change,[2]; 167 mg/kg.BW (Low),0.47 ± 0.13%
same,Thymus Weight change,[2]; 167 mg/kg.BW (Low),0.42 ± 0.07%
same,Spleen Weight change,[2]; 333 mg/kg.BW (Mid),0.46 ± 0.10%
same,Thymus Weight change,[2]; 333 mg/kg.BW (Mid),0.43 ± 0.12%
same,Spleen Weight change,[2]; 500 mg/kg.BW (High),0.45 ± 0.07%
same,Thymus Weight change,[2]; 500 mg/kg.BW (High),0.42 ± 0.11%
same,"effect on weights of immune system related organs, i.e., spleen and thymus",[2]; [5],no effect
same,Footpad swelling,[3]; 167 mg/kg.BW (Low),1.46 ± 0.39 mm
same,Footpad swelling,[3]; 333 mg/kg.BW (Mid),1.24 ± 0.24 mm
same,Footpad swelling,[3]; 500 mg/kg.BW (High),1.53 ± 0.49 mm
same,mouse footpad swelling compared to control,[3]; theaflavin low and high groups,statistically significant mouse footpad swelling
same,BW change,"[4]; study I, 167 mg/kg.BW (Low)",12.70 ± 0.82 g
same,BW change,"[4]; study I, 333 mg/kg.BW (Mid)",12.80 ± 0.79 g
same,BW change,"[4]; study I, 500 mg/kg.BW (High)",12.50 ± 0.71 g
same,BW change,"[4]; study II, 167 mg/kg.BW (Low)",12.00 ± 0.67 g
same,BW change,"[4]; study II, 333 mg/kg.BW (Mid)",11.80 ± 0.63 g
same,BW change,"[4]; study II, 500 mg/kg.BW (High)",12.70 ± 0.92 g
same,BW change,"[4]; study III, 167 mg/kg.BW (Low)",11.90 ± 0.88 g
same,BW change,"[4]; study III, 333 mg/kg.BW (Mid)",12.80 ± 0.63 g
same,BW change,"[4]; study III, 500 mg/kg.BW (High)",11.90 ± 0.57 g
same,BW change,"[4]; study IV, 167 mg/kg.BW (Low)",13.00 ± 0.94 g
same,BW change,"[4]; study IV, 333 mg/kg.BW (Mid)",11.90 ± 0.77 g
same,BW change,"[4]; study IV, 500 mg/kg.BW (High)",12.00 ± 0.47 g
same,effect on mice body weights,[4]; [5],no effect
